Experimental data as given in ChEMBL document CHEMBL1201862, “PubChem BioAssay data set” (2004).
“And” between values parts separate entries of the source, which are not always exact repeats. Identical values can stand only once. The source made the active and inactive calls.

Columns and labels:
[1] = HEp-2 cell cytotoxicity, dose response, cytotoxicity control for RSV inhibitor project, HTS (AID 2410); assay type: functional; conditions: human respiratory syncytial virus
[2] = target: T1, Bcl-2-related protein A1 (Mus musculus, UniProt Q07440); experiment: Bfl-1 binding inhibitors, SAR follow-up, biochemical, fluorescence polarization (AID 1070)
T1 sequence (Q07440 whole entry): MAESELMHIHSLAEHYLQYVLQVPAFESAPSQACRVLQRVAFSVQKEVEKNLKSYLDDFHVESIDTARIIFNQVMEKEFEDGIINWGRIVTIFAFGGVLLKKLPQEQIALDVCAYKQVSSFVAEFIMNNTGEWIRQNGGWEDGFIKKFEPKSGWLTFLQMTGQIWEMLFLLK

[3] = target: T1, Bcl-2-related protein A1; experiment: Bfl-1 inhibitors blocking BH3 peptide binding, confirmation, biochemical, TR-FRET, mouse Bfl-1 (AID 621);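 also: TR-FRET binding of GST-Bfl-1 to FITC-labelled Bid peptide via terbium antibody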
[4] = target: Heat shock protein HSP90 (Homo sapiens, UniProt P07900+P08238); experiment: tumor Hsp90 inhibitor potency, dose response (AID 712); assay type: functional
[5] = target: Voltage-gated inwardly rectifying potassium channel KCNH2 (Homo sapiens, UniProt Q12809); conditions: Potency;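 also: confirmatory quantitative high-throughput screen measuring inhibition of hERG channel activity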
Voltage-gated inwardly rectifying potassium channel KCNH2, sequence (Q12809 whole entry): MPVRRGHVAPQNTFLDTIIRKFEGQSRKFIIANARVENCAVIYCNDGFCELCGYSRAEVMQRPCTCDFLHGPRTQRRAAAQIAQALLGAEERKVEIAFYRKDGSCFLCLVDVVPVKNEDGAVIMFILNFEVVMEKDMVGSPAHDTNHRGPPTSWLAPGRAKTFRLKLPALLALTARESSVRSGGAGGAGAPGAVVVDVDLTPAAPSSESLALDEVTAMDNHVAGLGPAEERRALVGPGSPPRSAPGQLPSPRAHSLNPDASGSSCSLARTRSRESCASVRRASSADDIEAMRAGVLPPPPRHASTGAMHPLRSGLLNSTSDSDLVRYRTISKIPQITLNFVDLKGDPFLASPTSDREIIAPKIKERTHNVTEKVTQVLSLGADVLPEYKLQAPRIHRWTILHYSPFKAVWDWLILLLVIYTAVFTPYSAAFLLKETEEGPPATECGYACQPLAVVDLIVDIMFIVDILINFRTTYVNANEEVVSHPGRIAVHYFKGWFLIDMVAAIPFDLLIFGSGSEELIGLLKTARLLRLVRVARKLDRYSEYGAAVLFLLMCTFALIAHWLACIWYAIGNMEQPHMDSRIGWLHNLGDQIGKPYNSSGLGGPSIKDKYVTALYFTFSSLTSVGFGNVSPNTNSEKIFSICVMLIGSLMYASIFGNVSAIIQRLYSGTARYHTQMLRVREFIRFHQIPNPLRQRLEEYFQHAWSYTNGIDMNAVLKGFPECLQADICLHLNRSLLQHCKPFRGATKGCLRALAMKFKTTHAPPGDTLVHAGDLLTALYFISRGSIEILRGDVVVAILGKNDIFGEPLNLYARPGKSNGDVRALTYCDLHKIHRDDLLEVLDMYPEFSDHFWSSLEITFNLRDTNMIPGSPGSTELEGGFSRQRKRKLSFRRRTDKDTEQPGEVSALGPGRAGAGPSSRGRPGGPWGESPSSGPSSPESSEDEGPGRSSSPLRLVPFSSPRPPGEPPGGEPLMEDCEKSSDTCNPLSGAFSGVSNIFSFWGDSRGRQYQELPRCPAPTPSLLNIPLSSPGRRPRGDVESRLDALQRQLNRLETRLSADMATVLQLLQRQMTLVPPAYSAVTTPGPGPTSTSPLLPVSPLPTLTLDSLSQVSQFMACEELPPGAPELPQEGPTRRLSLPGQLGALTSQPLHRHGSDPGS

[6] = target: Protein-tyrosine kinase 2-beta (Homo sapiens, UniProt Q14289);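 also: potency of inhibitors of PYK2 kinase phosphorylation of poly-GT substrate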
Protein-tyrosine kinase 2-beta, sequence (Q14289 whole entry): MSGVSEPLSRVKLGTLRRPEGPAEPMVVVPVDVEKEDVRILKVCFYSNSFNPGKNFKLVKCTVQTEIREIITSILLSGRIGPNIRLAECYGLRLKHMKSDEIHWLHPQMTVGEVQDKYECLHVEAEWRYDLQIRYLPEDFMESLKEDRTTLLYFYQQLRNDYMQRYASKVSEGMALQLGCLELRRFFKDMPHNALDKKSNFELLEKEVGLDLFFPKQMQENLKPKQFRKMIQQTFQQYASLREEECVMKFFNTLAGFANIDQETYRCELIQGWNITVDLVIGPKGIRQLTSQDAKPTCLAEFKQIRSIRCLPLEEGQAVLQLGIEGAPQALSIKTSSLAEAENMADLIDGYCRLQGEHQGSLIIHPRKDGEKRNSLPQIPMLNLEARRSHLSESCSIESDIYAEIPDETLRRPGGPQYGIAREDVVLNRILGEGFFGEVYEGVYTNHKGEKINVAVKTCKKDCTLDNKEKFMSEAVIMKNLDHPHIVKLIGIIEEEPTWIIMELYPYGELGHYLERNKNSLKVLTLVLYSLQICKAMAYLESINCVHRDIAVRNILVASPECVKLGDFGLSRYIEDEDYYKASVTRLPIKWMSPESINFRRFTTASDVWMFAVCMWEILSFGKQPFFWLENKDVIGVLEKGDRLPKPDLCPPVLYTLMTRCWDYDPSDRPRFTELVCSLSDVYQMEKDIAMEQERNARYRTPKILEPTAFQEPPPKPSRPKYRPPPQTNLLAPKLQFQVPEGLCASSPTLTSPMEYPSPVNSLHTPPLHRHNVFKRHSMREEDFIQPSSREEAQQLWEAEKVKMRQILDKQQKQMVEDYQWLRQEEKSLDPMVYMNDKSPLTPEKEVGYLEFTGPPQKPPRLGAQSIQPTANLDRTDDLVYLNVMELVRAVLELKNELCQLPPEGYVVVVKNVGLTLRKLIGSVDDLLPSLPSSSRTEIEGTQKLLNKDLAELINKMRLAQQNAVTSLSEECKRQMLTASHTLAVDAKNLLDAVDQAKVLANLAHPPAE

[7] = target: Dual specificity protein phosphatase 3 (Homo sapiens, UniProt P51452); experiment: VHR1 inhibitor Ki determination, SAR follow-up, biochemical, colorimetric (AID 2004)
Dual specificity protein phosphatase 3, sequence (P51452 whole entry, the tested form may be a part): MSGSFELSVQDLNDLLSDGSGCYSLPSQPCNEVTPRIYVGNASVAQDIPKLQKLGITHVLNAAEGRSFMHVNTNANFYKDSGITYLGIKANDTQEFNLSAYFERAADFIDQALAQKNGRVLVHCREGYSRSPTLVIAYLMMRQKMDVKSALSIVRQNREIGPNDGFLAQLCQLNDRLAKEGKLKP

[8] = target: T2, Estrogen receptor (Homo sapiens, UniProt P03372); experiment: potentiators of ERα–SRC-1 coactivator binding, dose response, biochemical, TR-FRET, ERα LBD (AID 737)
T2 sequence (P03372 whole entry): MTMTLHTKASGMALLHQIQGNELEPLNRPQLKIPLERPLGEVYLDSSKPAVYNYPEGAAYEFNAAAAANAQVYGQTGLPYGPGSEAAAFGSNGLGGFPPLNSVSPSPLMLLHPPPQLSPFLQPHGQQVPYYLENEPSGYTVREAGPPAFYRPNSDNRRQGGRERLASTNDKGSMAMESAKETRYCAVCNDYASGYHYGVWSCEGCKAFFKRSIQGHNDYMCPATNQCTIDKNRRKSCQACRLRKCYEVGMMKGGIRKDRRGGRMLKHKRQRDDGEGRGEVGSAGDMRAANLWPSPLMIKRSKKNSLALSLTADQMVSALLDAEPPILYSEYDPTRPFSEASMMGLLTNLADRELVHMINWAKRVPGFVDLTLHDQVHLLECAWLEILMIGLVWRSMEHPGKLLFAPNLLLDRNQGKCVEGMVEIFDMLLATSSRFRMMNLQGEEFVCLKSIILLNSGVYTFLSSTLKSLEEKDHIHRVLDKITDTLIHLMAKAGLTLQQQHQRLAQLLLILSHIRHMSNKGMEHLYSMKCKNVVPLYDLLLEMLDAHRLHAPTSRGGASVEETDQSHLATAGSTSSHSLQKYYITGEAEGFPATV

[9] = target: DNA topoisomerase (Yersinia pestis, UniProt A0A2S9PM60); experiment: Y. pestis Topo-I inhibitors, cleavage product readout, dose response, biochemical, cherry-pick (AID 588525)
DNA topoisomerase, sequence (A0A2S9PM60 whole entry): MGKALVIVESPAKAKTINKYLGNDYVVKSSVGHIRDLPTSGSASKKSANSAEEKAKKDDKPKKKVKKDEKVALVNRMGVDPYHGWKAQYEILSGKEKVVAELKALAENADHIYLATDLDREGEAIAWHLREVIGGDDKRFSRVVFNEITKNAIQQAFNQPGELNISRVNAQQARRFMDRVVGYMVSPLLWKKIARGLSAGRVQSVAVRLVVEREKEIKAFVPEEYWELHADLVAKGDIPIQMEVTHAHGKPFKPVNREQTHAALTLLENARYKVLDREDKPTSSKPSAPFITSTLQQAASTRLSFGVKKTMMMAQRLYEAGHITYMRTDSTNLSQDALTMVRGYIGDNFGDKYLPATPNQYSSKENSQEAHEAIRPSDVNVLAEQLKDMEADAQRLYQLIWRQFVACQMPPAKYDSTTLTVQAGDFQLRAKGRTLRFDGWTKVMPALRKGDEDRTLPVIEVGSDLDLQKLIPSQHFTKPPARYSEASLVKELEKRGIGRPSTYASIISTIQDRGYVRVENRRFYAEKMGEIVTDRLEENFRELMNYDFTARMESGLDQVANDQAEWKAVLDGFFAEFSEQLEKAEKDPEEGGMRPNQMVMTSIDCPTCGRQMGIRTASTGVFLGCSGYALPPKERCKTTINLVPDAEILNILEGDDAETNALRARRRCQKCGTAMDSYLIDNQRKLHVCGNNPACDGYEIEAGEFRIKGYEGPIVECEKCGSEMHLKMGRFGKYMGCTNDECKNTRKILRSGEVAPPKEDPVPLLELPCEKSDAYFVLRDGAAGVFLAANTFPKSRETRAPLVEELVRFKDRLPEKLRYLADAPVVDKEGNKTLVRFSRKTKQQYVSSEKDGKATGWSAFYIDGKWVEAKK

[10] = inhibitors of Bluetongue virus cytopathic effect, confirmation, arbovirus, BSR cells (AID 1250); assay type: functional;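 also: protection from viral cytopathic effect measured as cell viability by ATP luminescence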
[11] = target: Cyclin-dependent kinase 5/CDK5 activator 1 (Homo sapiens, UniProt Q00535); experiment: CDK5/p35 kinase inhibitors, dose response, biochemical, cherry-picked samples, set 2 (AID 504545)
Cyclin-dependent kinase 5/CDK5 activator 1, sequence (Q00535 whole entry): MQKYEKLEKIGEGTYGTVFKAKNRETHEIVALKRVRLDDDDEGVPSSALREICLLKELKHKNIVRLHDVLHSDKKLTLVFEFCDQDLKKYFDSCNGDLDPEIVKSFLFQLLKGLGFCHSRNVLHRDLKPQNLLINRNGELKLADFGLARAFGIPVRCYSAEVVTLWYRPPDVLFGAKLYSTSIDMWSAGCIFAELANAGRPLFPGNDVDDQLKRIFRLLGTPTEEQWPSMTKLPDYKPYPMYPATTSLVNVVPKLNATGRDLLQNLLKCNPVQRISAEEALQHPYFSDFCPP
Cyclin-dependent kinase 5/CDK5 activator 1, sequence (Q15078 whole entry, further chain): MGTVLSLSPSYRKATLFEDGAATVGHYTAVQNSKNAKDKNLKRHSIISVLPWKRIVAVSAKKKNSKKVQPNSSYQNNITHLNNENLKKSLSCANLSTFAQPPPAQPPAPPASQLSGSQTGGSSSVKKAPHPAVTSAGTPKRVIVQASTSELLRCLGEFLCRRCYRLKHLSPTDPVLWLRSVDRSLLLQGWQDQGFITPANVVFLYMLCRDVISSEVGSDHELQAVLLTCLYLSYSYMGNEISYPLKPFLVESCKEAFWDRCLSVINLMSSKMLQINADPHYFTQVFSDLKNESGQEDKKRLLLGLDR

[12] = target: Heat shock protein HSP 90-alpha (Homo sapiens, UniProt P07900); assay type: functional, organism-based
[13] = tested on: H4; experiment: Luminescence Cell-Based Dose Response HTS to Identify Activators of 5'UTR Stem-Loop Driven Prion Protein mRNA Translation in H4 Neuroglioblastoma Cells. [Related pubchem assays: 1829 (Project Summary), 1814 (Primary HTS)]; assay type: functional; conditions: Homo sapiens
[14] = Luminescence Cell-Based Dose Confirmation HTS to Identify Activators of 5'UTR Stem-Loop Driven Alpha-Synuclein mRNA Translation in H4 Neuroglioblastoma Cells. [Related pubchem assays: 1829 (Project Summary), 1814 (Primary HTS)]; assay type: functional
[15] = target: T3, Mannose-6-phosphate isomerase (Homo sapiens, UniProt P34949); experiment: inhibitors of human PMI, primary screen, biochemical, fluorescence intensity, coupled assay (AID 1209)
T3 sequence (P34949 whole entry): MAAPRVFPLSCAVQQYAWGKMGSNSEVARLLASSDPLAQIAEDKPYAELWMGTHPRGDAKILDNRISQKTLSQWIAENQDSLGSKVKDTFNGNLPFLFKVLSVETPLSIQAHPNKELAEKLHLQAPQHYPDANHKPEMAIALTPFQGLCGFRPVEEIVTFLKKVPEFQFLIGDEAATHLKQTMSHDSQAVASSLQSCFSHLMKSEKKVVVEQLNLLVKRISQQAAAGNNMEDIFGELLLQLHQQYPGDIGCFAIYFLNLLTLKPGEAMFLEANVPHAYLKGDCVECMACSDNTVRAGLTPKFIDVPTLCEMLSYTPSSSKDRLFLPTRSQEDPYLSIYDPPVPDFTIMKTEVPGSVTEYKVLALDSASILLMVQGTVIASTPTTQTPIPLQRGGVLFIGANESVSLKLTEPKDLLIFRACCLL

[16] = target: T3, Mannose-6-phosphate isomerase; experiment: human PMI inhibitors, high substrate, primary screen, biochemical, fluorescence intensity, high mannose 6-phosphate (AID 1220)
[17] = Luminescence Cell-Based Dose Response HTS to Identify Activators of Luciferase Translation or Activity in H4 […] Cells. [Related pubchem assays: 1829 (Project Summary), 1814 (Primary HTS)]; assay type: functional

## COc1ccc2nc(O)c(-c3nnn(-c4ccc(Cl)c(Cl)c4)n3)cc2c1
[1]
  CC50: > 50 µM (active)
[2]
  IC50: > 100 µM (not active)
[3]
  IC50: > 100 µM (not active)

## C[C@H]1CCCC(=O)CCC/C=C/c2cc(O)cc(O)c2C(=O)O1 [ZEARALENONE]
[4]
  IC50: 2.402 µM
[5]
  AC50: 39.8 µM (inconclusive) and 56.2 µM (inconclusive)
[6]
  IC50: 6.92 µM (active)

## Cc1cccc(COc2ccc3c(c2)oc(=O)c2ccccc23)c1
[7]
  Ki: 26.4 µM (inactive)

## CCc1ccc(Nc2nc(N)nc(CSc3nnnn3-c3ccccc3)n2)cc1
[8]
  EC50: 4.76 µM (active)
[9]
  AC50: 6.16 µM (active)

## CC(=O)/C(=N/Nc1cccc(Cl)c1)Sc1nnc(C(O)c2ccccc2)n1-c1ccccc1 (stereo not drawn)
[10]
  IC50: 37.7 µM (active)

## O=[N+]([O-])c1ccc2c(c1)-c1ccccc1C2=NO
[11]
  AC50: 8.4 µM (active)
[12]
  AC50: 3.93 µM (active)

## CCOC(=O)c1c(C)oc2c1c1c(c3ccccc32)OCN(Cc2ccccn2)C1
[13]
  EC50: 0.816 µM (active)
[14]
  EC50: 1.87 µM (active)
[1]
  CC50: 40.2 µM (active)
[15]
  IC50: > 50 µM (not active)
[16]
  IC50: > 50 µM (not active)
[17]
  EC50: 12.9 µM (active)
